Measurements as given in ChEMBL document CHEMBL3580639, “Bioactive Limonoid Constituents of Munronia henryi” (J Nat Prod, 2015).
Converted amounts (≈) assume the structure as drawn.

Tests used:
Tobacco mosaic virus [1] = experiment: Antiviral activity against TMV U1 infected on Nicotiana glutinosa leaves smeared with virus before compound treatment assessed as virus infection curative effect by measuring local lesion numbers after 3 to 4 days post virus inoculation at 200 ug/ml by half-leaf method; assay type: functional; settings: U1, in Nicotiana glutinosa
A549 = experiment: Cytotoxicity against human A549 cells incubated for 48 hrs by MTT assay; assay type: functional, cell-based; settings: A549, 48 h
SW480 = experiment: Cytotoxicity against human SW480 cells incubated for 48 hrs by MTT assay; assay type: functional, cell-based; settings: SW480, 48 h
Tobacco mosaic virus [2] = experiment: Antiviral activity against TMV U1 infected on 20 mins compound treated fresh leaves from 5 to 6 growth stage Nicotiana glutinosa assessed as inhibition of virus growth at 50 ug/ml cultured at 25 degC for 72 hrs by half-leaf method; assay type: functional; settings: U1, in Nicotiana glutinosa
SMMC-7721 = experiment: Cytotoxicity against human SMMC7721 cells incubated for 48 hrs by MTT assay; assay type: functional, cell-based; settings: SMMC-7721, 48 h
HL-60 = experiment: Cytotoxicity against human HL60 cells incubated for 48 hrs by MTT assay; assay type: functional, cell-based; settings: HL-60, 48 h
Tobacco mosaic virus [3] = experiment: Antiviral activity against 30 mins compound pre-treated TMV U1 infected on Nicotiana glutinosa leaves assessed as virus inactivation effect by measuring local lesion numbers after 3 to 4 days post virus inoculation at 50 ug/ml by half-leaf method; assay type: functional; settings: U1, in Nicotiana glutinosa
MCF7 = experiment: Cytotoxicity against human MCF7 cells incubated for 48 hrs by MTT assay; assay type: functional, cell-based; settings: MCF7, 48 h
Tobacco mosaic virus [4] = experiment: Antiviral activity against TMV U1 infected on compound smeared Nicotiana glutinosa leaves assessed as virus infection protective effect by measuring local lesion numbers after 3 to 4 days post virus inoculation at 200 ug/ml by half-leaf method; assay type: functional; settings: U1, in Nicotiana glutinosa
Tobacco mosaic virus [5] = experiment: Antiviral activity against 30 mins compound pre-treated TMV U1 infected on Nicotiana glutinosa leaves assessed as virus inactivation effect by measuring local lesion numbers after 3 to 4 days post virus inoculation at 30 ug/ml by half-leaf method relative to untreated control; assay type: functional; settings: U1, in Nicotiana glutinosa
Tobacco mosaic virus [6] = experiment: Antiviral activity against 30 mins compound pre-treated TMV U1 infected on Nicotiana glutinosa leaves assessed as virus inactivation effect by measuring local lesion numbers after 3 to 4 days post virus inoculation at 40 ug/ml by half-leaf method relative to untreated control; assay type: functional; settings: U1, in Nicotiana glutinosa
Tobacco mosaic virus [7] = experiment: Antiviral activity against 30 mins compound pre-treated TMV U1 infected on Nicotiana glutinosa leaves assessed as virus inactivation effect by measuring local lesion numbers after 3 to 4 days post virus inoculation at 50 ug/ml by half-leaf method relative to untreated control; assay type: functional; settings: U1, in Nicotiana glutinosa
Tobacco mosaic virus [8] = experiment: Antiviral activity against 30 mins compound pre-treated TMV U1 infected on Nicotiana glutinosa leaves assessed as virus inactivation effect by measuring local lesion numbers after 3 to 4 days post virus inoculation at 10 ug/ml by half-leaf method relative to untreated control; assay type: functional; settings: U1, in Nicotiana glutinosa
Tobacco mosaic virus [9] = experiment: Antiviral activity against 30 mins compound pre-treated TMV U1 infected on Nicotiana glutinosa leaves assessed as virus inactivation effect by measuring local lesion numbers after 3 to 4 days post virus inoculation at 20 ug/ml by half-leaf method relative to untreated control; assay type: functional; settings: U1, in Nicotiana glutinosa
Tobacco mosaic virus [10] = experiment: Antiviral activity against 30 mins compound pre-treated TMV U1 infected on Nicotiana glutinosa leaves assessed as virus inactivation effect by measuring local lesion numbers after 3 to 4 days post virus inoculation by half-leaf method relative to untreated control; assay type: functional, organism-based
Tobacco mosaic virus [11] = experiment: Antiviral activity against 30 mins compound pre-treated TMV U1 infected on Nicotiana glutinosa leaves assessed as virus inactivation effect by measuring local lesion numbers after 3 to 4 days post virus inoculation at 5 ug/ml by half-leaf method relative to untreated control; assay type: functional; settings: U1, in Nicotiana glutinosa

Row | SMILES | inhibition at 200 µg/mL (Tobacco mosaic virus [1]) | IC50 (A549) | IC50 (SW480) | inhibition at 50 µg/mL (Tobacco mosaic virus [2]) | IC50 (SMMC-7721) | IC50 (HL-60) | inhibition at 50 µg/mL (Tobacco mosaic virus [3]) | IC50 (MCF7) | inhibition at 200 µg/mL (Tobacco mosaic virus [4]) | inhibition at 30 µg/mL (Tobacco mosaic virus [5]) | inhibition at 40 µg/mL (Tobacco mosaic virus [6]) | inhibition at 50 µg/mL (Tobacco mosaic virus [7]) | inhibition at 10 µg/mL (Tobacco mosaic virus [8]) | inhibition at 20 µg/mL (Tobacco mosaic virus [9]) | IC50 (Tobacco mosaic virus [10]) | inhibition at 5 µg/mL (Tobacco mosaic virus [11])
1 | CC(=O)O[C@@H]1[C@H](O)[C@H]2C(C)(C)[C@H](OC(C)=O)C[C@H](OC(C)=O)[C@]2(C)[C@H]2CC[C@]3(C)C(=CC[C@H]3c3ccoc3)[C@]12C | 15.4% | > 10 µM | > 10 µM | 18.5% | > 10 µM | > 10 µM | 21.2% | > 10 µM | 19.4% | – | – | – | – | – | – | –
2 | CO[C@H]1C[C@H]2[C@](C)(C3=C(C)[C@H](c4ccoc4)C[C@@H]3O1)[C@H](O)[C@@H]1OC[C@]3(C)[C@H](OC(C)=O)C[C@H](OC(=O)c4ccccc4)[C@@]2(C)[C@@H]13 | 19.3% | > 10 µM | > 10 µM | 41.5% | > 10 µM | > 10 µM | 30.9% | > 10 µM | 15% | – | – | – | – | – | – | –
3 | CNCC(=O)N[C@@H](CO)C(=O)N[C@H]1[C@H](O)[C@@H](O)[C@H](n2ccc(N)nc2=O)O[C@@H]1C(N)=O [NINGNANMYCIN] | 40.7% | – | – | 69.2% | – | – | 58.9% | – | 50.2% | 33.9% | 38.6% | 57.3% | 17.9% | 20.8% | 44.6 µg/mL (≈ 101 µM) | –
4 | C/C=C(\C)C(=O)O[C@H]1C[C@@H](OC(C)=O)[C@@]2(C)CO[C@H]3[C@@H](O)[C@@]4(C)C5=C(C)[C@H](c6ccoc6)C[C@@H]5O[C@H](OC)C[C@@H]4[C@]1(C)[C@@H]32 | 59.6% | > 10 µM | > 10 µM | 97.9% | > 10 µM | > 10 µM | 91.4% | > 10 µM | 63.8% | 68.2% | 79.8% | 92.8% | 20.5% | 39.7% | 25.8 µg/mL (≈ 43.1 µM) | –
5 | C/C=C(\C)C(=O)O[C@H]1C[C@@H](OC(C)=O)[C@@]2(C)CO[C@H]3[C@@H](O)[C@@]4(C)C5=C(C)[C@H](c6ccoc6)C[C@@H]5OC=C[C@@H]4[C@]1(C)[C@@H]32 | 20.1% | > 10 µM | > 10 µM | 49.3% | > 10 µM | > 10 µM | 38.5% | > 10 µM | 24.7% | – | – | – | – | – | – | –
6 | CC(=O)O[C@H]1[C@@H](OC(C)=O)[C@@]2(C)C3=CC[C@@H](c4ccoc4)[C@]3(C)CC[C@@H]2[C@@]2(C)[C@@H](O)C[C@@H](OC(C)=O)C(C)(C)[C@H]12 | 23.6% | > 10 µM | > 10 µM | 33.6% | > 10 µM | > 10 µM | 30.2% | > 10 µM | 25.3% | – | – | – | – | – | – | –
7 | CC(=O)O[C@H]1C(=O)[C@@]2(C)[C@H]([C@H](OC(=O)c3ccccc3)[C@]3(O)C[C@H](OC(=O)[C@H](O)[C@@H](NC(=O)c4ccccc4)c4ccccc4)C(C)=C1C3(C)C)[C@]1(OC(C)=O)CO[C@@H]1C[C@@H]2O [PACLITAXEL] | – | < 0.008 µM | < 0.008 µM | – | < 0.008 µM | < 0.008 µM | – | < 0.008 µM | – | – | – | – | – | – | – | –
8 | C/C=C(\C)C(=O)O[C@H]1C[C@@H](OC(C)=O)[C@@]2(C)CO[C@H]3[C@@H](O)[C@]4(C)[C@H](CC(OC)O[C@H]5C[C@@H](c6ccoc6)C(C)[C@H]54)[C@]1(C)[C@@H]32 (stereo partly drawn) | 53.6% | > 10 µM | > 10 µM | 43.9% | > 10 µM | > 10 µM | 31.5% | > 10 µM | 50% | – | – | – | – | – | – | –
9 | CC(=O)O[C@H]1C[C@@H]2[C@@]3(C)[C@@H](OC(C)=O)CC(=O)OC(C)(C)[C@@H]3CC[C@@]2(C)C2=CC[C@@H](c3ccoc3)[C@@]21C | 29.9% | > 10 µM | > 10 µM | 89% | > 10 µM | > 10 µM | 81.8% | > 10 µM | 36.4% | 63.4% | 73.7% | 83.6% | 20.3% | 38.1% | 27.7 µg/mL (≈ 54 µM) | –
10 | C=C1[C@@H]([C@@]2(C)C=CC(=O)OC(C)(C)[C@@H]2CC(=O)OC)[C@@H](OC(C)=O)[C@H](OC(C)=O)[C@@]2(C)[C@H](C(=O)O)C[C@H]3O[C@]132 | 27.3% | > 10 µM | > 10 µM | 30.7% | > 10 µM | > 10 µM | 32.5% | > 10 µM | 30.5% | – | – | – | – | – | – | –
11 | C/C=C(\C)C(=O)O[C@@H]1[C@@H]2OC[C@]3(C)[C@H](OC(C)=O)C[C@H](O)[C@@](C)([C@@H]23)[C@H]2CCO[C@H]3C[C@@H](C4=CCOC4=O)C(C)=C3[C@]12C [CHISONIMBOLININ F] | 20.5% | > 10 µM | > 10 µM | 44.5% | > 10 µM | > 10 µM | 34.1% | > 10 µM | 17.3% | – | – | – | – | – | – | –
12 | C=C1[C@@H]([C@@]2(C)C=CC(=O)O[C@](C)(COC(C)=O)[C@@H]2CC(=O)OC)[C@@H](OC=O)[C@H](OC(=O)[C@H](O)[C@H](C)CC)[C@@]2(C)[C@@H](c3ccoc3)C[C@H]3O[C@]132 [MOMBASOL] | 28.1% | > 10 µM | > 10 µM | 47.6% | > 10 µM | > 10 µM | 38.9% | > 10 µM | 31.6% | – | – | – | – | – | – | –
13 | C=C1[C@@H]([C@@]2(C)[C@@H](OC(C)=O)CC(=O)O[C@](C)(COC(C)=O)[C@@H]2C(=O)OC)[C@@H](OC=O)[C@H](OC(=O)[C@H](O)[C@H](C)CC)[C@@]2(C)[C@H](c3ccoc3)CC(=O)[C@]12O [PRIEURIANIN] | 41.6% | 1 µM | 1.2 µM | 75.9% | 0.73 µM | 4.8 µM | 68.1% | 2.2 µM | 45.7% | 35.6% | 39.3% | 70.5% | 3.5% | 11.7% | 44.4 µg/mL (≈ 59.3 µM) | –
14 | CC(=O)O[C@H]1C[C@H]2[C@](C)(C3=CC[C@@H](c4ccoc4)[C@@]31C)[C@H](OC(C)=O)C[C@H]1C(C)(C)OC(=O)C[C@H](OC(C)=O)[C@@]12C [MUNRONOID L] | 23.7% | > 10 µM | > 10 µM | 80% | > 10 µM | > 10 µM | 61.4% | > 10 µM | 42.1% | 51.4% | 57.6% | 60.8% | 21.5% | 48% | 29 µg/mL (≈ 50.8 µM) | 10.2%
15 | CC(=O)O[C@@H]1[C@@H]2[C@@]3(C)[C@@H](OC(C)=O)CC(=O)OC(C)(C)[C@@H]3CC(=O)[C@@]2(C)[C@@]23O[C@@H]2C[C@@H](c2ccoc2)[C@]3(C)[C@H]1OC(C)=O | 57.6% | > 10 µM | > 10 µM | 97.6% | > 10 µM | > 10 µM | 95.3% | > 10 µM | 60.2% | 80.3% | 91.4% | 93.9% | 28.7% | 64.9% | 20.4 µg/mL (≈ 34 µM) | 9.7%
16 | COC(=O)C[C@@H]1C(C)=C/C(=C\C2=C[C@@H](OC(C)=O)[C@H](OC(C)=O)[C@]3(C)C2=CC[C@H]3c2ccoc2)C(=O)OC1(C)C | 27.9% | > 10 µM | > 10 µM | 30.1% | > 10 µM | > 10 µM | 27.6% | > 10 µM | 28.3% | – | – | – | – | – | – | –
